Experimental findings from patent US5912247A, “Quinazoline compound and anti-tumor agent containing said compound as an active ingredient” (Kanebo, Ltd., priority 1995, dated 1999) are described below.

Where a name gives a salt, the structure may show the parent alone.

In one assay the test system is Colon 26 solid tumor. The assay is described as follows: Inhibitory activity of dye accumulation in the solid tumor tissue (inhibition of the tumor blood flow). In kind it is in vivo, Male BALB/c mice. Details: key to Inhibitory activity of dye accumulation into solid tumor: +: The average absorbance in the test group is significantly smaller than the average absorbance in the control group.; -: There is no significant difference in the average absorbance between the test group and the control group. The note with it: intravenous, Evans blue 1 hour after administration. Here is the method: Inhibitory activity of dye accumulation in the solid tumor tissue (inhibition of the tumor blood flow): a) Materials: Test Animal: Male BALB/c mice (weighing 21-27 g, six mice per group) Tumor: Colon 26 solid tumor b) Test Method: Colon 26 solid tumor was cut in a size of about 1 mm square. The pieces of solid tumor were treated with a 0.25% collagenase solution and 0.02% deoxyribonuclease solution at 37° C. for 1.5 hour to give a cell suspension of colon 26 solid tumor cells. The cell suspension was adjusted to 3×10^6 cells/ml and the cell suspension (100 μl) was subcutaneously inoculated on the right back of male BALB/c mice. Ten days after the transplantation, the longitudinal size of the tumor was measured, and when the longitudinal size of the tumor reached about 10 mm, the mice were randomized. To the mice in test groups, the test compound was intravenously administered in an amount of 10 mg/kg or 1.25 mg/kg. The test compound was administered in the form of a solution in saline (in the test solution of Test Compound BF and BK, an equimolar amount of fumaric acid was further added, and in the test solution of Test Compound BN, an equimolar amount of hydrochloric acid was further added). To the mice in the control group, only saline was administered intravenously. One hour after the administration, 3% Evans blue-saline solution was injected intravenously via the tail vein of the mice in a volume of 0.1 ml per 10 g of the body weight of mouse, and 5 minutes later the mice were killed by luxation of the cervical vertebrae. After removing the tumor, the tumor was weighed. To extract Evans blue, the tumor was suspensed in 0.5% aqueous sodium sulfate (1.5 ml per 1 g of the tumor) and acetone (3.5 ml per 1 g of tumor), and then the tumor was cut into small pieces. After allowing to stand at room temperature overnight, the suspension were centrifuged at 3,000 rpm for 10 minutes to extract Evans blue, and the absorbance of the supernatant was read at 630 nm. […] (-): There is no significant difference in the average absorbance between the test group and the control group.

The subject of assay [1] is St-4 solid tumor (human gastric cancer transplantable to nude mouse). The assay is described as follows: Anti-tumor activity against human gastric cancer St-4 (solid tumor) transplanted to nude mouse. The note with it: 40 mg/kg (po) (× 40 days). In kind it is in vivo, human (in male BALB/cA JCI-nu nude mice). An excerpt: Anti-tumor activity against human gastric cancer St-4 (solid tumor) transplanted to nude mouse: a) Materials: Test Animal: Male BALB/cA JCI-nu nude mice (six week old, six mice per group) Tumor: St-4 solid tumor (human gastric cancer transplantable to nude mouse) b) Test Method: St-4 solid tumor was cut to about 3 mm cubic, and the fragments were subcutaneously transplanted into the back at one side of the nude mice with a trockar. Ten days after the transplantation, the longitudinal size (L) and the size of the width direction (W) of the tumor were measured. The tumor weight was calculated by the formula: L×W×W/2, and when the weight of the tumor reached 100 mg to 300 mg, the mice were randomized. To the mice in test groups, the test compound was orally administered once a day for 40 days. The test compounds of this invention were administered in an amount of 30 mg/kg or 40 mg/kg in the form of a solution in distilled water, and No. 5666 was administered in an amount of 30 mg/kg or 100 mg/kg in the form of a suspension in 5% arabic gum solution. After the administration of the test compounds, the longitudinal size and the size in the width direction of the tumor were measured, and then the weight of tumor was calculated. The ratio of the tumor weight after treated with test compounds to the tumor weight before administration of test compounds (i.e. the relative tumor weight) was determined. As to the control group, the relative tumor weight was also determined likewise. The anti-tumor activity was evaluated in the same manner as described in Ann. Clin. Lab. Sci., 8 (1), 50 (1978). That is, the ratio of the relative tumor weight in the test group (T) to that in the control group (C) [T/C (%)] was calculated, and when the minimum of the ratio [Min.

In the case of `O[C@H]1CCC[C@@H]1Oc1nc(N2CCNCC2)nc2ccccc12` [Compound AD, 4-[(1S,2S)-(2-Hydroxycyclopentan-1-yl)oxy]-2-(1-piperazinyl)quinazolinemonoacetate], the “Inhibitory activity of dye accumulation into solid tumor” value (shortened to “Inhibitory activity”) in the assay on Colon 26 solid tumor (1.25 mg/kg) and in the assay on Colon 26 solid tumor (10 mg/kg) was “+” throughout.
For the compound `O[C@@H]1CCC[C@H]1Oc1nc(N2CCNCC2)nc2ccccc12` [Compound AE, 4-[(1R,2R)-(2-Hydroxycyclopentan-1-yl)oxy]-2-(1-piperazinyl)quinazolinemonoacetate], the “Inhibitory activity” value in the assay with Colon 26 solid tumor (1.25 mg/kg) and in the assay with Colon 26 solid tumor (10 mg/kg) was “+” each time.
For `CC(=O)O.O[C@H]1COC[C@@H]1Oc1nc(N2CCNCC2)nc2ccccc12` [Compound AH, 4-[(3S,4S)-(4-Hydroxytetrahydrofuran-3-yl)oxy]-2-(1-piperazinyl)quinazoline monoacetate], the “Inhibitory activity” value in the assay on Colon 26 solid tumor (1.25 mg/kg) and in the assay with Colon 26 solid tumor (10 mg/kg) was “+” throughout.
For `CC(=O)O.O[C@@H]1COC[C@H]1Oc1nc(N2CCNCC2)nc2ccccc12` [Compound AI, 4-[(3R,4R)-(4-Hydroxytetrahydrofuran-3-yl)oxy]-2-(1-piperazinyl)quinazoline monoacetate], the “Inhibitory activity” value with Colon 26 solid tumor (1.25 mg/kg) and in the assay with Colon 26 solid tumor (10 mg/kg) was “+” each time. Moreover, in assay [1], the Evaluation result was “Effective (when the minimum of the ratio [Min. T/C (%)] was less than 42%, the test compound was evaluated as "effective")”. For the same compound, in assay [1], the “Min. T/C (%)” value is reported as 31.7%.
Consider `O[C@@H]1COC[C@H]1Oc1nc(N2CCNCC2)nc2ccccc12` [Compound AJ, 4-[(3R,4R)-(4-Hydroxytetrahydrofuran-3-yl)-oxy]-2-(1-piperazinyl)quinazoline 1/2 hydrochloride], for which the “Inhibitory activity” value in the assay on Colon 26 solid tumor (1.25 mg/kg) and in the assay on Colon 26 solid tumor (10 mg/kg) was “+” each time.
Turning to `Cl.O[C@@H]1COC[C@H]1Oc1nc(N2CCNCC2)nc2ccccc12` [Compound AK, 4-[(3R,4R)-(4-Hydroxytetrahydrofuran-3-yl)-oxy]-2-(1-piperazinyl)quinazoline monohydrochloride], the “Inhibitory activity” value in the assay on Colon 26 solid tumor (1.25 mg/kg) and in the assay on Colon 26 solid tumor (10 mg/kg) was “+” in each case.
Consider `O[C@@H]1C[C@H](Oc2nc(N3CCNCC3)nc3ccccc23)C[C@@H]1O` [Compound AN, 4-[(c-3,c-4-Dihydroxycyclopentan-r-1-yl)oxy]-2-(1-piperazinyl)quinazoline monohydrochloride], for which the “Inhibitory activity” value in the assay with Colon 26 solid tumor (1.25 mg/kg) and in the assay with Colon 26 solid tumor (10 mg/kg) was “+” each time.
With `O[C@@H]1[C@H](O)[C@@H](Oc2nc(N3CCNCC3)nc3ccccc23)C[C@H]1O` [Compound AP, 4-[(1S,2S,3S,4R)-(2,3,4-Trihydroxycyclopentan-1-yl)oxy]-2-(1-piperazinyl)quinazoline 1/2 fumarate], the “Inhibitory activity” value in the assay with Colon 26 solid tumor (1.25 mg/kg) and in the assay on Colon 26 solid tumor (10 mg/kg) was “+” each time.
Regarding `O[C@@H]1[C@H](O)[C@@H](O)C[C@H]1Oc1nc(N2CCNCC2)nc2ccccc12` [Compound AQ, 4-[(1R,2R,3R,4S)-(2,3,4-Trihydroxycyclopentan-1-yl)oxy]-2-(1-piperazinyl)quinazoline 1/2 fumarate], the “Inhibitory activity” value in the assay on Colon 26 solid tumor (1.25 mg/kg) and in the assay with Colon 26 solid tumor (10 mg/kg) was “+” each time.
As to `CO[C@@H]1C[C@H](Oc2nc(N3CCNCC3)nc3ccccc23)[C@@H](O)[C@H]1O` [Compound AR, 4-[(1S,2S,3R,4R)-(2,3-Dihydroxy-4-methoxy-cyclopentan-1-yl)oxy]-2-(1-piperazinyl)quinazoline 1/2 fumarate], the “Inhibitory activity” value in the assay on Colon 26 solid tumor (1.25 mg/kg) and in the assay on Colon 26 solid tumor (10 mg/kg) was “+” in each case.
For `CO[C@H]1C[C@@H](Oc2nc(N3CCNCC3)nc3ccccc23)[C@H](O)[C@@H]1O` [Compound AS, 4-[(1R,2R,3S,4S)-(2,3-Dihydroxy-4-methoxy-cyclopentan-1-yl)oxy]-2-(1-piperazinyl)quinazoline 1/2 fumarate], the “Inhibitory activity” value in the assay with Colon 26 solid tumor (1.25 mg/kg) and with Colon 26 solid tumor (10 mg/kg) was “+” in each case.
In the case of `CO[C@H]1C[C@@H](Oc2nc(N3CCNCC3)nc3ccccc23)[C@H](O)[C@@H]1O.Cl` [Compound AT, 4-[(1R,2R,3S,4S)-(2,3-Dihydroxy-4-methoxy-cyclopentan-1-yl)oxy]-2-(1-piperazinyl)quinazoline mono-hydrochloride], the “Inhibitory activity” value in the assay on Colon 26 solid tumor (1.25 mg/kg) and in the assay with Colon 26 solid tumor (10 mg/kg) was “+” throughout.
Consider `CC(=O)O.OCCOc1nc(N2CCNCC2)nc2ccccc12` [Compound BA, 4-[(2-Hydroxyethyl)oxy]-2-(1-piperazinyl)-quinazoline monoacetate], for which the “Inhibitory activity” value in the assay on Colon 26 solid tumor (1.25 mg/kg) and in the assay on Colon 26 solid tumor (10 mg/kg) was “+” throughout.
On to `CC(=O)O.C[C@H](O)[C@H](C)Oc1nc(N2CCNCC2)nc2ccccc12` [Compound BD, 4-[(2S,3S)-(3-Hydroxybutan-2-yl)oxy]-2-(1-piperazinyl)quinazoline monoacetate], for which, in the assay on Colon 26 solid tumor (10 mg/kg), the “Inhibitory activity” value is “+”.
Still for that read-out and setting: the result for `CC(=O)O.C[C@@H](O)[C@@H](C)Oc1nc(N2CCNCC2)nc2ccccc12` [Compound BE, 4-[(2R,3R)-(3-Hydroxybutan-2-yl)oxy]-2-(1-piperazinyl)quinazoline monoacetate] reads “+”.
Regarding `C[C@H](O)[C@@H](O)COc1nc(N2CCNCC2)nc2ccccc12.Cl` [Compound BG, 4-[(2S,3S)-(2,3-Dihydroxybutan-1-yl)oxy]-2-(1-piperazinyl)quinazoline monohydrochloride], the “Inhibitory activity” value in the assay on Colon 26 solid tumor (1.25 mg/kg) and in the assay on Colon 26 solid tumor (10 mg/kg) was “+” each time.
On to `C[C@@H](O)[C@H](O)COc1nc(N2CCNCC2)nc2ccccc12.Cl` [Compound BH, 4-[(2R,3R)-(2,3-Dihydroxybutan-1-yl)oxy]-2-(1-piperazinyl)quinazoline monohydrochloride], for which the “Inhibitory activity” value in the assay on Colon 26 solid tumor (1.25 mg/kg) and with Colon 26 solid tumor (10 mg/kg) was “+” throughout.
For `Cl.OC[C@@H](O)CCOc1nc(N2CCNCC2)nc2ccccc12` [Compound BI, 4-[(3S)-(3,4-Dihydroxybutan-1-yl)oxy]-2-(1-piperazinyl)quinazoline monohydrochloride], the “Inhibitory activity” value in the assay with Colon 26 solid tumor (1.25 mg/kg) and in the assay on Colon 26 solid tumor (10 mg/kg) was “+” in each case.
Turning to `Cl.OC[C@H](O)[C@@H](O)COc1nc(N2CCNCC2)nc2ccccc12` [Compound BL, 4-[(2S,3S)-(2,3,4-Trihydroxybutan-1-yl)oxy]-2-(1-piperazinyl)quinazoline monohydrochloride], the “Inhibitory activity” value in the assay on Colon 26 solid tumor (1.25 mg/kg) and in the assay on Colon 26 solid tumor (10 mg/kg) was “+” throughout.
Turning to `Cl.OC[C@@H](O)[C@H](O)COc1nc(N2CCNCC2)nc2ccccc12` [Compound BM, 4-[(2R,3R)-(2,3,4-Trihydroxybutan-1-yl)oxy]-2-(1-piperazinyl)quinazoline monohydrochloride], the “Inhibitory activity” value in the assay with Colon 26 solid tumor (1.25 mg/kg) and with Colon 26 solid tumor (10 mg/kg) was “+” in each case.
With `OC[C@@H](O)COc1nc(N2CCNCC2)nc2ccccc12` [Compound BN, 4-[(2R)-(2,3-Dihydroxypropan-1-yl)oxy]-2-(1-piperazinyl)quinazoline], the “Inhibitory activity” value with Colon 26 solid tumor (1.25 mg/kg) is “+”.
